This note sets out measurements from US20220370440A1 (Lead Discovery Center GmbH, priority 2018, published 2022).

In assay [1] the target is T1, HER2 INS YVMA (Homo sapiens, UniProt P04626, INS775YVMA).
T1 construct: purchased DPF
The experiment in a line: Lance Kinase Activity Assay, HER2 INS YVMA (Her2 Exon 20 INSYVMA Lance). Conditions: biochemical Lance assay. The format is biochemical. The procedure:
1. Measurement of HER2 INS YVMA Kinase Activity
This protocol describes how the Lance Kinase Activity Assay was performed to determine IC50 values of compounds of general formula (I) against HER2 INS YVMA. The principle behind this enzymatic assay is based upon the phosphorylation of the Ulight-peptide substrate. It is detected by using a specific EU-labeled anti-phospho peptide antibody. The binding of the Eu labeled anti-phospho peptide antibody to the phosphorylated ULight labeled peptide gives rise to a FRET-signal.
Binding of an inhibitor to the kinase prevents phosphorylation of the Ulight-substrate, resulting in a loss of FRET. In table 2 is summarized the relevant information for the LANCE assay.
The compounds of general formula (I) summarized in Table 3 were serial diluted from a 10 mM DMSO stock solution 1:3 over 8 steps in a total volume of 20 μl.
For every sample, 8 μl of kinase-substrate mix was transferred into a suitable assay plate (e.g. Corning #3673). Compound was added via pintool transfer (10 nl/well) using a Biomek FX robot (BeckmanCoulter). Reaction was started by addition of 2 μl ATP working solution and mixed using variomag teleshaker (Thermo Fischer Scientific). After 1 h incubation at room temperature the reaction was stopped with 10 μl detection mix containing the Eu-labeled phosphospecific antibody and 10 mM EDTA. After a second incubation period of 1 h at room temperature the FRET signal was measured at 340 nm excitation, 665 nm and 615 nm emission (for the ULight-substrate and Eu-AB, respectively) with an Envision spectrophotometer (Perkin Elmer, Waltham, Mass., USA) with 50 μs delay and 300 μs integration time. IC50 values were determined from the sigmoidal dose response curves with the software Quattro Workflow (Quattro GmbH, Munich, Germany).

The target in assay [2] is Her2 Exon 20 INSYVMA Ba/F3 (Homo sapiens, UniProt P04626, DUP772-775, cells depend on it). The experiment in a line: Her2 Exon 20 INSYVMA Ba/F3 CellTiter-Glo. The format is cell-based. The settings on record: CellTiter-Glo, 72 h, read-out: Her2 Exon 20 INSYVMA Ba/F3 CTG IC50. On the procedure:
(§1) 2. Measurement of Cellular Activity
(§2) The CellTiter-Glo Luminescent Cell Viability Assay (Promega) is a homogeneous method of determining the number of viable cells in culture. It is based on quantification of ATP, indicating the presence of metabolically active cells. Cells are seeded on day 1 at cell numbers that assure assay linearity and optimal signal intensity. After incubation for 24 h in humidified chambers at 37° C. and 5% CO2, compounds in DMSO are added at different concentrations. Cells are further incubated for 72 h at 37° C. and 5% CO2. Cells treated with the compound vehicle DMSO are used as positive controls and cells treated with 10 μM Staurosporine serve as negative controls. At day 5 the CellTiter Glo Reagent is prepared according to the instructions of the kit (Promega Inc.): Reagent is mixed 1:1 with cell culture medium. Thereon, mixture and assay plates are equilibrated at room temperature for 20 min. Equal volumes of the reagent-medium-mixture is added to the volume of culture medium present in each well. The plates are mixed at ˜200 rpm for 2 minutes on an orbital shaker. The microplates are then incubated at room temperature for 10 minutes for stabilization of the luminescent signal. Following incubation the luminescence is recorded on a Victor microplate reader (Perkin Elmer) using a 200 ms integration time. The data is then analyzed with Excel using the XLFIT Plugin (dose response Fit 205) for IC50-determination. As quality control the Z′-factor is calculated from 16 positive and negative control values. Only assay results showing a Z′-factor ≥0.5 are used for further analysis.
(§3) Inhibition is indicated as IC50 [nM] (“−”=not measured). Compounds having an activity designated as “A” provided an IC50≤100 nM; compounds having an activity designated as “B” provided an 100 nM<IC50≤500 nM; compounds having an activity designated as “C” provided an 500 nM<IC50≤1000 nM; compounds having an activity designated as “D” provided an 1000 nM<IC50≤10000 nM; and compounds having an activity designated as “E” provided an IC50>10000 nM.
(Cellular ATP, detected with luciferase, serves as a proxy for viable cell number.)

Assay [3] has as its target EGFR Exon 20 INSNPH Ba/F3 (Homo sapiens, UniProt P00533, DUP771-773, cells depend on it). Put plainly: EGFR Exon 20 INSNPH Ba/F3 CellTiter-Glo. The assay is classed as cell-based. Conditions: CellTiter-Glo, 72 h, read-out: EGFR Exon 20 INSNPH Ba/F3 CTG IC50. On the procedure:
as §1, §2, §3

Assay [4] deals with EGFR T790ML858R (Homo sapiens, UniProt P00533, L858R/T790M). Put plainly: EGFR T790ML858R Lance assay. The assay is classed as biochemical. On the procedure: (§4) Inhibition is indicated as […] [nM] (“−”=not measured). Compounds having an activity designated as “A” provided an IC50≤100 nM; compounds having an activity designated as “B” provided an 100 nM<IC50≤500 nM; compounds having an activity designated as “C” provided an 500 nM<IC50≤1000 nM; compounds having an activity designated as “D” provided an 1000 nM<IC50≤100000 nM; and compounds having an activity designated as “E” provided an IC50>10000 nM.

In assay [5] the target is EGFR wt (Homo sapiens, UniProt P00533). Put plainly: EGFR wt Lance assay. The format is biochemical. The procedure: as §4
The subject of assay [6] is H1975. The experiment in a line: H1975 CellTiter-Glo. The format is cell-based. The settings on record: Homo sapiens, NCI-H1975; 72 h compound incubation; read-out: H1975 CTG IC50. The procedure: as §1, §2, §4
The subject of assay [7] is A431. The experiment in a line: A431 CellTiter-Glo. Conditions: Homo sapiens, A-431; 72 h compound incubation; read-out: A431 CTG IC50. The format is cell-based. On the procedure:
as §1, §2, §4

In general, IC50 refers to the concentration needed to halve the response being measured.

EGFR T790ML858R, sequence (P00533 25-1210 T790M/L858R): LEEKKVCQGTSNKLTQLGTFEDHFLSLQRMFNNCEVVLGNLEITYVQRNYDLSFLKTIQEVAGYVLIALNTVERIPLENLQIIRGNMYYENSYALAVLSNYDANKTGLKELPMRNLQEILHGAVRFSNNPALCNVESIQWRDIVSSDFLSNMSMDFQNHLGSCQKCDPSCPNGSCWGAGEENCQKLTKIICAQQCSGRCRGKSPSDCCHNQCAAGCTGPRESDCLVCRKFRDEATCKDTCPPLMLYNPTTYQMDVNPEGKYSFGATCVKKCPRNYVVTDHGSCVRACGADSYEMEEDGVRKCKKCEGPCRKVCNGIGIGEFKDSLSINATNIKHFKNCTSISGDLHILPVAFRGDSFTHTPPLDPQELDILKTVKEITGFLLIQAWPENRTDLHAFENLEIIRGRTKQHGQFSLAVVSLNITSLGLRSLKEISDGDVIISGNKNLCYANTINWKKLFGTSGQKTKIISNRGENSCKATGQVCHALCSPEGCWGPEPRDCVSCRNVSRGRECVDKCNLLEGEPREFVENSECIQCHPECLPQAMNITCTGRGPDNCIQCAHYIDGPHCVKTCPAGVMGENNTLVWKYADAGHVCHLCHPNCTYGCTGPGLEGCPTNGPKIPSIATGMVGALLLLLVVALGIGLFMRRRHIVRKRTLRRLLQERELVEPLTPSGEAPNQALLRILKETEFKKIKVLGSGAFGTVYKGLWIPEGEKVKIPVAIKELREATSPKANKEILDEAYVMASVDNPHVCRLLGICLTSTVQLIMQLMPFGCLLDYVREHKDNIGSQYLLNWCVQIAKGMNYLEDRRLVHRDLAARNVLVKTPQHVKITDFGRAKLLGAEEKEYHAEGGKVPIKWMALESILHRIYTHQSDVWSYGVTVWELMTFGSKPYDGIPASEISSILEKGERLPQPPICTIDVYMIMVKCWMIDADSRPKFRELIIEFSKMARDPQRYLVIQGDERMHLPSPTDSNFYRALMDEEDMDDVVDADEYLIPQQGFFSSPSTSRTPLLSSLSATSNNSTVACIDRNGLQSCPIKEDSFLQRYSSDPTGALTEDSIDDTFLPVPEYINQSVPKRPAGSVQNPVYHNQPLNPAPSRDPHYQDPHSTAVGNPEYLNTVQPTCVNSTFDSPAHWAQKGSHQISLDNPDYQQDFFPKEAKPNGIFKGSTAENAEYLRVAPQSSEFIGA
T1 sequence (P04626 with tags, fused parts or gaps INS775YVMA): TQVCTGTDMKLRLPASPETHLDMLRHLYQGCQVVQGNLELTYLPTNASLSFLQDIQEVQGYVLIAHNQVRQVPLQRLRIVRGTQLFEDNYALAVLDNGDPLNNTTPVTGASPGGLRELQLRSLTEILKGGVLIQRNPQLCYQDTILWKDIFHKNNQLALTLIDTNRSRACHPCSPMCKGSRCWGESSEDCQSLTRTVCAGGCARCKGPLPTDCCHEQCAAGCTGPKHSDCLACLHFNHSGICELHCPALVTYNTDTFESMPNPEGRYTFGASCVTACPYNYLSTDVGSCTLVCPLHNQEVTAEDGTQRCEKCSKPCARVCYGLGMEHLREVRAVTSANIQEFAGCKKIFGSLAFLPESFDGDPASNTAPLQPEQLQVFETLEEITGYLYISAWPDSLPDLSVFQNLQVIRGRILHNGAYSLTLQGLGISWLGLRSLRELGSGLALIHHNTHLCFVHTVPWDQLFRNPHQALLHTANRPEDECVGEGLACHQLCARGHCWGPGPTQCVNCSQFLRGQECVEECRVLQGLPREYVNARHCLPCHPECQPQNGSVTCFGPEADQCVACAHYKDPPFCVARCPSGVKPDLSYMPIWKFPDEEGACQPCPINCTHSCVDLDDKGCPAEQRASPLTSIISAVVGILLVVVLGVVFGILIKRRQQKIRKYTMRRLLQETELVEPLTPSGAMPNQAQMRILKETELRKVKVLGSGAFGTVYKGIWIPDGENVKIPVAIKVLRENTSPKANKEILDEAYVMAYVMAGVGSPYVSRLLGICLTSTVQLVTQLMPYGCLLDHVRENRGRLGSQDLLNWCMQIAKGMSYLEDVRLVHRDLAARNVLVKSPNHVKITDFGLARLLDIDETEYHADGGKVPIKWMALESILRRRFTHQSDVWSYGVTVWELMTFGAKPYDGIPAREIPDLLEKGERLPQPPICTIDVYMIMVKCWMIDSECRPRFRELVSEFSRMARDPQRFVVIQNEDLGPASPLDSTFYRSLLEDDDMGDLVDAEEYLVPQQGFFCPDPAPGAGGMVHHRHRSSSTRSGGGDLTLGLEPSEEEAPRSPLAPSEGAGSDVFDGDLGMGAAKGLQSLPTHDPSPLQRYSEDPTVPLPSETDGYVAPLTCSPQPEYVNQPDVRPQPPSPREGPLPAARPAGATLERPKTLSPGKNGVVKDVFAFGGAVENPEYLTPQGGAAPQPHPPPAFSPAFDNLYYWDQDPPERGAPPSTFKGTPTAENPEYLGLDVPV
EGFR wt, sequence (P00533 25-1210): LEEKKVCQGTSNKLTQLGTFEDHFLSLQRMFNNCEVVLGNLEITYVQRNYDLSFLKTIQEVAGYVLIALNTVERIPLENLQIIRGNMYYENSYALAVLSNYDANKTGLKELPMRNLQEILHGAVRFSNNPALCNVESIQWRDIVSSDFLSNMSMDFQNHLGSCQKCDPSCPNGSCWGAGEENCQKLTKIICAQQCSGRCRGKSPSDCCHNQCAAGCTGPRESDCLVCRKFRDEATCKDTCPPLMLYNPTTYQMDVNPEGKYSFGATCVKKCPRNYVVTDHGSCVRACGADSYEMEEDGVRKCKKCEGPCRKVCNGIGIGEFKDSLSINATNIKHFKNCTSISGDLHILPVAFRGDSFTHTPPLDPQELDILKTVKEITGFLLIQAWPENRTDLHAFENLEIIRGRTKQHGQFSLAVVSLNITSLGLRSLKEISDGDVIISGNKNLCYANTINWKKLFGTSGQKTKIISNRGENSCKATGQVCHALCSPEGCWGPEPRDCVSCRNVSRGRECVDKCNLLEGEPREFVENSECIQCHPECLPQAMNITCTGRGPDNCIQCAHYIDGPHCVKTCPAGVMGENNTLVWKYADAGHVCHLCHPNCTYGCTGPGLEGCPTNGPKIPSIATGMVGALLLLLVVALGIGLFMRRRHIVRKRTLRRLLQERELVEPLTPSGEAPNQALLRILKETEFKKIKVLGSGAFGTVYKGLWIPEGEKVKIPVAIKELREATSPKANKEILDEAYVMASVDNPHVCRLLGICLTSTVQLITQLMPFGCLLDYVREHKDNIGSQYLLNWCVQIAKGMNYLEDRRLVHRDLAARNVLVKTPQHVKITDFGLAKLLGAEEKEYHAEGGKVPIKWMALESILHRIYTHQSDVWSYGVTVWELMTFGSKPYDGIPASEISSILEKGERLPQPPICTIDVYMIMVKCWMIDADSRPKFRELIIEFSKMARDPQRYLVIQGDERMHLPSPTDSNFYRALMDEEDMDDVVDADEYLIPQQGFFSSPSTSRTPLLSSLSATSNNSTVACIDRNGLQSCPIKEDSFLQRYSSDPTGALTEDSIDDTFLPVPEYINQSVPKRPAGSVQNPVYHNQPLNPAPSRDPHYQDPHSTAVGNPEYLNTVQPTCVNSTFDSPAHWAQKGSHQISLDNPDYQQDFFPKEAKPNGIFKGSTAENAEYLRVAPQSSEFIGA
Her2 Exon 20 INSYVMA Ba/F3, sequence (P04626 with tags, fused parts or gaps DUP772-775): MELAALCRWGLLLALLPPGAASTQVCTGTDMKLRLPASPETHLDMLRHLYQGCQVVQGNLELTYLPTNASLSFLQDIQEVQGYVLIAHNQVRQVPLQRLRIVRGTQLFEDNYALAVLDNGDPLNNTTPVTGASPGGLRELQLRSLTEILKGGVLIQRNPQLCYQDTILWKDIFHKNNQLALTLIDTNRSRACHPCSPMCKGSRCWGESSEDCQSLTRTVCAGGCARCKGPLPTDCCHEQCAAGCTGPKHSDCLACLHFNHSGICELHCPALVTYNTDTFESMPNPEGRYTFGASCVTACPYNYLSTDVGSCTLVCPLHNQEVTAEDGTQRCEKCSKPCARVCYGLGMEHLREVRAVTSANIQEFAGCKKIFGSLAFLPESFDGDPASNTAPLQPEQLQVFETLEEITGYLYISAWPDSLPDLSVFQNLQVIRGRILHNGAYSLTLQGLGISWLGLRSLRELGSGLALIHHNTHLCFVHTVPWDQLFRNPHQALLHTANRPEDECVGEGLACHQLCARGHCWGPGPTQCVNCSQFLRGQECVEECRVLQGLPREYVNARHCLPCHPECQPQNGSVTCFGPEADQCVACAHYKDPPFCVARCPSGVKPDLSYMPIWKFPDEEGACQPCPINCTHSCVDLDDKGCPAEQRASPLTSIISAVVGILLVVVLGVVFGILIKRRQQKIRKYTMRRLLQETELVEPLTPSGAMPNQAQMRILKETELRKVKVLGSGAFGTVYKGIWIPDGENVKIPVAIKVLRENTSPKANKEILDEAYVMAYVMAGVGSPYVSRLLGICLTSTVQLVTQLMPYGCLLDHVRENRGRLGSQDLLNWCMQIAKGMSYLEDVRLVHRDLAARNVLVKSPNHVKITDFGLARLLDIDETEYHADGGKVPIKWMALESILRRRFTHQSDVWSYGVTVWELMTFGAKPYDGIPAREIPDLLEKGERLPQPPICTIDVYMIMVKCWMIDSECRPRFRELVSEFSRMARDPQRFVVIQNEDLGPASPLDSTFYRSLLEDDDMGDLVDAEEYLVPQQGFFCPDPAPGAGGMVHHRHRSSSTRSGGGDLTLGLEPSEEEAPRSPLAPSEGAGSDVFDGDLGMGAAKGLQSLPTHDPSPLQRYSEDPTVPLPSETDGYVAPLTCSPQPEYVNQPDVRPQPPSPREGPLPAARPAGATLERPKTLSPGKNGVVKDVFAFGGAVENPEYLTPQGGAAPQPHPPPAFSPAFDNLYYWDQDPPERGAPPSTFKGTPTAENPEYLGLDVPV

For the compound `C=CC(=O)Nc1cc(-c2c(-c3ccc(N4CCN(C)CC4)cc3)[nH]c3ncc(C(=O)NCc4cccc(C(N)=O)c4)cc23)ccc1C` [Example 133, 3-(3-acrylamido-4-methylphenyl)-N-(3-carbamoylbenzyl)-2-(4-(4-methylpiperazin-1-yl)phenyl)-1H-pyrrolo[2,3-b]pyridine-5-carboxamide], the IC50 in assay [1] was 100 to 500 nM; in assay [4] it was 100 to 500 nM; in assay [5], at most 100 nM; in assay [6] it was above 10000 nM; in assay [7], above 10000 nM. The GI50 in assay [2] and in assay [3] was above 10000 nM in each case.
In the case of `C=CC(=O)Nc1cc(-c2c(-c3ccc(N(C)CCN(C)C)cc3)[nH]c3ncc(C(=O)OC(C)C)c(C)c23)ccc1C` [Example 204, isopropyl 3-(3-acrylamido-4-methylphenyl)-2-(4-((2-(dimethylamino)ethyl)(methyl)amino)phenyl)-4-methyl-1H-pyrrolo[2,3-b]pyridine-5-carboxylate], the IC50 in assay [1] is at most 100 nM; in assay [4] it was at most 100 nM; in assay [5], at most 100 nM; in assay [6] it was 100 to 500 nM; in assay [7], 1000 to 100000 nM. Besides, the GI50 in assay [2] and in assay [3] was at most 100 nM each time.
As to `C=CC(=O)N1CCOc2ccc(-c3c(-c4cccc(OCCN5CCCC5)c4)[nH]c4nccc(Cl)c34)cc21` [Example 103, 1-(6-(4-chloro-2-(3-(2-(pyrrolidin-1-yl)ethoxy)phenyl)-1H-pyrrolo[2,3-b]pyridin-3-yl)-2H-benzo[b][1,4]oxazin-4(3H)-yl)prop-2-en-1-one], the IC50 is at most 100 nM in assay [1]; at most 100 nM in assay [4]; at most 100 nM in assay [5]; 100 to 500 nM in assay [6]; 500 to 1000 nM in assay [7]. Also, the GI50 in assay [2] and in assay [3] was 100 to 500 nM throughout.
Take `C=CC(=O)Nc1cc(-c2c(-c3ccc(N4CCN(C)CC4)cc3)[nH]c3ncc(C(=O)OC(C)C)c(C)c23)ccc1C` [Example 198, isopropyl 3-(3-acrylamido-4-methylphenyl)-4-methyl-2-(4-(4-methylpiperazin-1-yl)phenyl)-1H-pyrrolo[2,3-b]pyridine-5-carboxylate]: the IC50 was at most 100 nM in assay [1]; at most 100 nM in assay [4]; at most 100 nM in assay [5]; 100 to 500 nM in assay [6]; 500 to 1000 nM in assay [7].
`C=CC(=O)Nc1cc(-c2c(-c3ccc(N4CCN(C)CC4)cc3)[nH]c3ncc(C(=O)OC4CCC4)cc23)ccc1C` [Example 136, cyclobutyl 3-(3-acrylamido-4-methylphenyl)-2-(4-(4-methylpiperazin-1-yl)phenyl)-1H-pyrrolo[2,3-b]pyridine-5-carboxylate]: the IC50 was at most 100 nM in assay [1]; at most 100 nM in assay [4]; at most 100 nM in assay [5]; 100 to 500 nM in assay [6]; 1000 to 100000 nM in assay [7]. In addition, the GI50 in assay [2] and in assay [3] was 100 to 500 nM each time.
Consider `C=CC(=O)Nc1cc(-c2c(-c3cccc(OCCCN(C)C)c3)[nH]c3ncc(C(=O)OC(C)C)cc23)ccc1C` [Example 183, isopropyl 3-(3-acrylamido-4-methylphenyl)-2-(3-(3-(dimethylamino)propoxy)phenyl)-1H-pyrrolo[2,3-b]pyridine-5-carboxylate], for which the IC50 in assay [1] was at most 100 nM; in assay [4], at most 100 nM; in assay [5] it was at most 100 nM; in assay [6], 100 to 500 nM; in assay [7] it was 1000 to 100000 nM. Besides, the GI50 in assay [2] and in assay [3] was 100 to 500 nM each time.
`C=CC(=O)Nc1cc(-c2c(-c3ccc(N4CCN(C)CC4)cc3)[nH]c3ncc(C(=O)OC4CCCCC4)cc23)ccc1C` [Example 137, cyclohexyl 3-(3-acrylamido-4-methylphenyl)-2-(4-(4-methylpiperazin-1-yl)phenyl)-1H-pyrrolo[2,3-b]pyridine-5-carboxylate]: the IC50 in assay [1] was 100 to 500 nM; in assay [4], at most 100 nM; in assay [5], at most 100 nM; in assay [6], 100 to 500 nM; in assay [7] it was 1000 to 100000 nM. The GI50 in assay [2] and in assay [3] was 500 to 1000 nM each time.
Consider `C/C=C/C(=O)Nc1cc(-c2c(-c3ccc(N4CCN(C)CC4)cc3)[nH]c3nccc(Cl)c23)ccc1C` [Example 142, (E)-N-(5-(4-chloro-2-(4-(4-methylpiperazin-1-yl)phenyl)-1H-pyrrolo[2,3-b]pyridin-3-yl)-2-methylphenyl)but-2-enamide 2,2,2-trifluoroacetate], for which the IC50 in assay [1] was 500 to 1000 nM; in assay [4], at most 100 nM; in assay [5] it was at most 100 nM; in assay [6], 100 to 500 nM; in assay [7] it was 1000 to 100000 nM. Moreover, the GI50 in assay [2] and in assay [3] was 1000 to 10000 nM in each case.
In the case of `C=CC(=O)Nc1cc(-c2c(-c3ccc(N4CCN(C)CC4)cc3)[nH]c3ncc(OC(F)(F)F)cc23)ccc1C` [Example 188, N-(2-methyl-5-(2-(4-(4-methylpiperazin-1-yl)phenyl)-5-(trifluoromethoxy)-1H-pyrrolo[2,3-b]pyridin-3-yl)phenyl)acrylamide 2,2,2-trifluoroacetate], the IC50 in assay [1] is at most 100 nM; in assay [4], at most 100 nM; in assay [5] it was at most 100 nM; in assay [6], 100 to 500 nM; in assay [7], 1000 to 100000 nM. In addition, the GI50 in assay [2] and in assay [3] was 100 to 500 nM in each case.
For `C=CC(=O)Nc1cc(-c2c(-c3cccc(N4CCN(C(C)=O)CC4)c3)[nH]c3ncc(C(=O)OC(C)C)cc23)ccc1C` [Example 185, isopropyl 2-(3-(4-acetylpiperazin-1-yl)phenyl)-3-(3-acrylamido-4-methylphenyl)-1H-pyrrolo[2,3-b]pyridine-5-carboxylate], the IC50 in assay [1] was 1000 to 10000 nM; in assay [4], 500 to 1000 nM; in assay [5] it was at most 100 nM; in assay [6], 1000 to 100000 nM; in assay [7], above 10000 nM. Also, the GI50 in assay [2] and in assay [3] was 1000 to 10000 nM throughout.
